Values of other authors as cited in patent publication US20040023897A1, “Methods for preventing or treating disease mediated by toxin-secreting bacteria” (priority 2001, published 2004).

Tests used:
V-ATPases [1] = system: V-ATPases
V-ATPases [2] = system: V-ATPases; remark: listed apart in the source

SMILES | concentration at which reversible inhibition of proton translocation occurs (V-ATPases [1]) | also measured
CO/C1=C\C(C)=C\[C@@H](C)[C@@H](O)[C@@H](C)C/C(C)=C/C=C/[C@H](OC)[C@@H]([C@@H](C)[C@@H](O)[C@H](C)[C@@]2(O)C[C@@H](O)[C@H](C)[C@@H](C(C)C)O2)OC1=O [Bafilomycin A1] | sub-micromolar concentrations | 
C(=NC1CCCCC1)=NC1CCCCC1 [DCCD, N,N′-dicyclohexylcarbodiimide] |  | inhibition of proton pumping (V-ATPases [1]; micromolar concentrations of DCCD): complete and irreversible inhibition
CCN1C(=O)C=CC1=O [N-ethylmaleimide] |  | concentration at which inhibition of ATP hydrolysis occurs (V-ATPases [2]): low micromolar concentrations
C/C=C/[C@H]1O[C@@](O)([C@@H](C)[C@H](O)[C@H](C)[C@H]2OC(=O)/C(OC)=C/C(C)=C/[C@@H](C)[C@@H](O)[C@@H](CC)[C@@H](O)[C@H](C)C/C(C)=C/C=C/[C@@H]2OC)C[C@@H](O[C@H]2C[C@@H](O)[C@H](OC(N)=O)[C@@H](C)O2)[C@@H]1C [concanamycin A] | sub-micromolar concentrations | 
